{
  "source": "paper PMC10121968",
  "about": "“Fosgonimeton, a Novel Positive Modulator of the HGF/MET System, Promotes Neurotrophic and Procognitive Effects in Models of Dementia” (Neurotherapeutics, 2022)",
  "key": {"[1]": {"assay": "Simulated intestinal and gastric fluid stability", "type": "in vitro ADME", "settings": "1 h, 5 µM, 37 °C", "description": "Simulated intestinal and gastric fluid studies were contracted to Quintara Discovery Inc, Hayward, California. Simulated intestinal fluid was freshly prepared with 8.7 mM NaOH, 28.65 mM NaH2PO4, 5.85 mM NaCl, with a final pH of 6.8. […] was added to a final concentration of 0.32%. Simulated gastric fluid was prepared with 34.2 mM NaCl. The pH was adjusted to 1.2, and […] was added to a final concentration of 1%. Fosgo-AM was added to the simulated fluids to achieve a concentration of 5 µM. After mixing, samples were transferred to 96-well plates in duplicate (25 μL/well) and incubated at 37 °C. At time 0, 1, 2, and 4 h, 150 μL quench solution (100% acetonitrile with 0.1% formic acid) and bucetin internal standard was added to the appropriate wells. Plates were sealed and centrifuged at 4 °C for 15 min at 4000 rpm. The supernatant was transferred to fresh plates for liquid chromatography/[…] mass spectrometry (LC/MS/MS) analysis. The extent of metabolism was calculated as the disappearance of the test compound compared with the time = 0 incubations."}, "AKT (Ser473)": {"tested_on": "AKT (Ser473)", "assay": "Phospho-AKT HTRF assay in HEK293 cells", "type": "cell-based, human", "settings": "HEK293, subthreshold HGF 10 ng/mL + fosgo-AM 0.1 µM, vs HGF alone", "description": "To determine phosphoactivation status of the intracellular signaling molecules ERK (Thr202/Tyr204) or AKT (Ser473), we used homogenous time-resolved fluorescence (HTRF) kits to assess phosphorylation status based on the energy transfer between donor and acceptor phospho-ERK (pERK) or phospho-AKT (pAKT) antibodies. HTRF kit processing for pERK (Phospho-ERK [Thr202/Tyr204] cellular Advanced kit, #64AERPEG, Cisbio, Codolet, France) and pAKT (Phospho-AKT [Ser473] cellular kit, #64AKSPEG, Cisbio, Codolet, France) were carried out per manufacturer instructions. In brief, HEK293 cells were grown at 37 °C, 5% CO2 in DMEM + 10% FBS until approximately 80% confluent. Cells were seeded in polystyrene-treated 96-well cell culture plates at approximately 50,000 cells/well and cultured overnight in 50 µL serum-free growth media. […] Fluorescence emission at 2 different wavelengths (665 nm and 620 nm) were measured on an Envision plate reader (PerkinElmer, Waltham, Massachusetts), and the HTRF ratio of the acceptor and donor emission signals for each well was calculated as follows: HTRF ratio = (665 nm/620 nm) × 10,000. […] Data were assessed for normality (Shapiro–Wilk) and homoscedasticity (Brown-Forsythe). Statistical significance was determined by one-way analysis of variance (ANOVA) with Tukey’s multiple comparison post-test. […]"}},
  "note": "Non-standard residues stand in square brackets, D forms with d. Residues, ends and D or L forms follow the SMILES beside them. *: point of attachment. Hexanoyl = CCCCCC(=O)*; Ahx = NCCCCCC(=O)O",
  "data": [
    {"smiles": "CCCCCC(=O)N[C@@H](Cc1ccc(O)cc1)C(=O)N[C@H](C(=O)NCCCCCC(N)=O)[C@@H](C)CC", "note": "[fosgo-AM] (Hexanoyl-Tyr-Ile-[Ahx]-NH2)", "values": [
      {"measurement": "remaining after exposure", "setting": "[1]; simulated gastric fluid", "result": 7.8, "unit": "%"},
      {"measurement": "remaining after exposure", "setting": "[1]; simulated intestinal fluid", "result": 0.1, "unit": "%"},
      {"measurement": "pAKT levels", "setting": "AKT (Ser473)", "result": "significant increase"}
    ]}
  ]
}
